Among the test systems are MDA-MB-435; LOX IMVI melanoma; DU-145 prostate; IGROV1 ovarian; ACHN renal; UO-31 renal; UACC-62 melanoma; HL-60(TB) leukemia; HCT-116 colon; MOLT-4 leukemia.
Holding throughout (assay): NCI-60 cell line screen, 48 h

Values joined by “and” are separate entries in the source; they are usually repeats but may differ in a detail not shown here. Equal values may be shown once.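 Tested at 5 concentrations; 48 h exposure; 96-well plates; endpoints linearly interpolated, else capped at highest concentration. At the GI50, growth is halved. TGI is the concentration that stops growth completely.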 Where only a bound is given, the exact number is not on record here.

As for `NS(=O)(=O)c1ccc(N=Nc2ccc[nH]c2=O)cc1`, the TGI with MDA-MB-435, in the experiment with LOX IMVI melanoma, with DU-145 prostate, in the experiment on IGROV1 ovarian, in the experiment with ACHN renal and in the experiment on UO-31 renal was more than 100 µM in each case. Moreover, the TGI in the experiment on UACC-62 melanoma, in the experiment with HL-60(TB) leukemia, in the experiment on HCT-116 colon and in the experiment on MOLT-4 leukemia was more than 100 µM throughout.

As for `COc1ccc(Cn2cc(COc3cc(/C=C/C(=O)c4cc(OC)c(OC)c(OC)c4)ccc3OC)nn2)cc1`, the GI50 is 2860 nM in the experiment with MDA-MB-435; 3220 nM in the experiment with LOX IMVI melanoma; 2410 nM with DU-145 prostate; 4140 nM in the experiment with IGROV1 ovarian; 4.47 µM in the experiment on ACHN renal; 4.71 µM in the experiment on UO-31 renal. The GI50 in the experiment on UACC-62 melanoma is 4190 nM; with HL-60(TB) leukemia it was 4.55 µM; with HCT-116 colon it was 3360 nM; with MOLT-4 leukemia, 4.67 µM. The TGI in the experiment on MDA-MB-435 was more than 100 µM; in the experiment with LOX IMVI melanoma it was more than 100 µM; in the experiment on DU-145 prostate it was 5.2 µM; in the experiment with IGROV1 ovarian, more than 100 µM; in the experiment on ACHN renal, more than 100 µM; with UO-31 renal, more than 100 µM. For the same molecule, the TGI is more than 100 µM with UACC-62 melanoma, 35.1 µM with HL-60(TB) leukemia, more than 100 µM in the experiment with HCT-116 colon and more than 100 µM in the experiment on MOLT-4 leukemia.

Take `COc1cccc2c1C(=O)c1c(O)c3c(c(O)c1C2=O)C[C@@](O)(/C(CO)=N/NC(=O)CCCCCN1C(=O)C=CC1=O)C[C@@H]3O[C@H]1C[C@H](N)[C@H](O)[C@H](C)O1`: the GI50 in the experiment with MDA-MB-435 is 2030 nM; with LOX IMVI melanoma, 301 nM; with DU-145 prostate, 554 nM; in the experiment on IGROV1 ovarian, 1040 nM; in the experiment with ACHN renal it was 0.717 µM; with UO-31 renal, 3.47 µM. In addition, the GI50 in the experiment with UACC-62 melanoma was 621 nM; with HL-60(TB) leukemia, 0.8 µM; in the experiment on HCT-116 colon, 410 nM; with MOLT-4 leukemia it was 0.392 µM. Besides, the TGI with MDA-MB-435 is 13.4 µM; in the experiment on LOX IMVI melanoma, 3.95 µM; with DU-145 prostate, 38.6 µM; with IGROV1 ovarian it was more than 100 µM; with ACHN renal, more than 51.5 µM; in the experiment on UO-31 renal, 27.9 µM. Further, the TGI is 3 µM in the experiment with UACC-62 melanoma, 15.5 µM in the experiment on HL-60(TB) leukemia, more than 100 µM in the experiment on HCT-116 colon and 28.3 µM with MOLT-4 leukemia.

Regarding `Cc1ccc(/C=N/NC(=O)c2ccccc2Oc2ccccc2)o1`, the GI50 in the experiment with MDA-MB-435 was 34600 nM; in the experiment on LOX IMVI melanoma, more than 67400 nM; with DU-145 prostate, 73200 nM; with IGROV1 ovarian it was 59500 nM; with ACHN renal, 28.5 µM; in the experiment with UO-31 renal, 44.8 µM. Further, the GI50 in the experiment with UACC-62 melanoma is 17300 nM; in the experiment with HL-60(TB) leukemia, 22.8 µM; in the experiment with HCT-116 colon it was 48800 nM; in the experiment with MOLT-4 leukemia, 22.8 µM. Further, the TGI in the experiment with MDA-MB-435, in the experiment on LOX IMVI melanoma, in the experiment with DU-145 prostate, with IGROV1 ovarian, with ACHN renal and in the experiment with UO-31 renal was more than 100 µM in each case. For the same molecule, the TGI with UACC-62 melanoma was more than 81.2 µM; with HL-60(TB) leukemia, more than 74.1 µM; with HCT-116 colon, more than 100 µM; in the experiment with MOLT-4 leukemia, 66.5 µM.

Consider `Cc1ccc(C[As+](c2ccccc2)(c2ccccc2)c2ccccc2)cc1`, for which the GI50 was 552 nM with MDA-MB-435; 1410 nM in the experiment on LOX IMVI melanoma; 1360 nM in the experiment on DU-145 prostate; 1170 nM in the experiment with IGROV1 ovarian; 3.66 µM in the experiment with ACHN renal; 12.4 µM in the experiment on UO-31 renal. Also, the GI50 with UACC-62 melanoma is 371 nM; in the experiment with HL-60(TB) leukemia it was 0.286 µM; in the experiment on HCT-116 colon it was 645 nM; with MOLT-4 leukemia it was 2.41 µM. The TGI was 6.34 µM in the experiment with MDA-MB-435; 6.85 µM in the experiment on LOX IMVI melanoma; more than 56.8 µM in the experiment with DU-145 prostate; 25.1 µM in the experiment with IGROV1 ovarian; more than 100 µM with ACHN renal; 97.4 µM in the experiment on UO-31 renal. Further, the TGI in the experiment on UACC-62 melanoma was 12.6 µM; in the experiment on HL-60(TB) leukemia it was 1.48 µM; with HCT-116 colon, more than 36.2 µM; with MOLT-4 leukemia it was 13.6 µM.

As for `CNC(=O)ON(C(C)=O)C(=O)NC`, the TGI with MDA-MB-435 is 50.2 µM; with LOX IMVI melanoma, 119 µM; with DU-145 prostate, 135 µM; in the experiment on IGROV1 ovarian, 241 µM; in the experiment with ACHN renal, 47.7 µM; in the experiment with UO-31 renal it was 114 µM. For the same molecule, the TGI in the experiment on UACC-62 melanoma is 149 µM; with HL-60(TB) leukemia, 37.7 µM and 29.5 µM; in the experiment with HCT-116 colon, 136 µM; with MOLT-4 leukemia, > 91.5 µM and 92 µM. Further, the GI50 was 65200 nM in the experiment with LOX IMVI melanoma; more than 60.8 µM in the experiment with ACHN renal; more than 88200 nM in the experiment on UACC-62 melanoma; 14.2 µM and 8.38 µM with HL-60(TB) leukemia; 35.7 µM and 19.1 µM in the experiment on MOLT-4 leukemia.

As for `N#C/C(=C\c1cc(O)c(O)c(O)c1)C(N)=O`, the TGI in the experiment with MDA-MB-435 was more than 100 µM; in the experiment on LOX IMVI melanoma it was more than 65.6 µM; with DU-145 prostate, more than 100 µM; in the experiment with IGROV1 ovarian, more than 100 µM; in the experiment on ACHN renal, more than 100 µM; in the experiment on UO-31 renal, more than 100 µM. Further, the TGI was more than 100 µM in the experiment on UACC-62 melanoma, more than 81.5 µM with HL-60(TB) leukemia, more than 100 µM with HCT-116 colon and more than 100 µM in the experiment on MOLT-4 leukemia.

On to `CN1CCN(CCCNC(=O)c2c3c(n4ccccc24)C(=O)c2ncccc2C3=O)CC1`, for which the GI50 in the experiment on MDA-MB-435 was 295 nM; in the experiment on LOX IMVI melanoma it was 715 nM; in the experiment on DU-145 prostate, 1600 nM; with IGROV1 ovarian it was 1280 nM; with ACHN renal it was 0.866 µM; in the experiment with UO-31 renal it was 1.81 µM. Besides, the GI50 with UACC-62 melanoma was 764 nM; with HL-60(TB) leukemia it was 2.23 µM; with HCT-116 colon, 632 nM; in the experiment on MOLT-4 leukemia, 2.13 µM. The TGI in the experiment on MDA-MB-435 amounted to 0.619 µM; in the experiment on LOX IMVI melanoma, 3.36 µM; in the experiment with DU-145 prostate, 9.37 µM; with IGROV1 ovarian it was 5.06 µM; with ACHN renal, 5.49 µM; with UO-31 renal, 30.7 µM. Also, the TGI is 3 µM in the experiment with UACC-62 melanoma, 5.76 µM with HL-60(TB) leukemia, 4.93 µM in the experiment on HCT-116 colon and 4.87 µM in the experiment on MOLT-4 leukemia.

Values taken from PubChem BioAssay (NCI).
